Biological target: T1, WT BTK protein (Homo sapiens, UniProt Q06187)
T1 construct: measured for intracellular BTK protein levels by Western blotting; endogenous in cells; host or cells: TMD-8 or RAMOS cells
Experiment: BTK protein degradation assay (Western blotting), WT BTK
Type: cell-based
Settings: concentration range accounting for 50% degradation of WT BTK protein, TMD-8 or RAMOS cells, 24 hours
Procedure: TMD-8, RAMOS, or 293T BTK MUT (C481S) cells were treated with the synthesized compounds and measured for intracellular BTK protein levels by Western blotting. The protocol of the experiment using TMD-8 cells is as follows.
TMD-8 cells were resuspended in an RPMI1640 medium (Hyclone, SH30027.01, 10% FBS (Hyclone, SV30207.02), 1% penicillin-streptomycin (Welgene, LS 202-02) and the cell suspension was seeded at a density of 1×10^6 cells/mL in an amount of 1 mL per well into 12-well plates.
The 12-well plates were treated as follows. A 10 mM stock was 1/10 diluted in series with DMSO ([…]) to form final concentrations of 10, 1, 0.1, 0.01, 0.001, and 0.0001 mM. The compounds with such concentrations were applied to cells, followed by harvesting the cells 24 hours later. For a negative control, a 1/10 dilution of DMSO in the medium (3 mL DMSO+27 mL medium) was used.
The 1-mL cell culture in each well was passed many times through a pipette and then transferred into a 1.5-mL microtube before centrifugation (500 g, 5 min, 4° C.). The supernatant was discarded and the cell pellet was washed with PBS. After centrifugation (500 g, 5 min, 4° C.) again, the supernatant was discarded and the cell pellet was taken.
A lysis buffer was prepared as follows. RIPA buffer (Biosesang, RC2038-050-00)+0.5 mM PMSF (SIGMA, P7626)+1×Protease/Phosphatase Inhibitor (Cell signaling, 5872S) was added in an amount […] per well and left for 30 minutes on ice (vortexing at 0 and 30 minutes) before sonication (5 cycles of pulse for 10 seconds and rest for 30 seconds, 70% amplification). The supernatant obtained by centrifugation (15000 g, 15 min, 4° C.) was transferred into a new microtube. Cells in each well of 96-well plates were 1/2 diluted with the RIPA buffer and incubated at 37° C. for 30 minutes with […] of a 50:1 mixture of BCA reagents A and B in BCA Protein Assay Kit (iNtRON, 21071). After being cooled for 10 minutes, the 96-well plates were measured for absorbance at 562 nm on the BioTek, SYNERGY H1 microplate reader. Samples were prepared by protein quantification based on the absorbance measurements and then boiled at 70° C. for 10 minutes. The sample buffer used in the case was prepared by mixing a NuPAGE or a Bolt 4× sample buffer (Invitrogen) and its 10× sample reducing agent depending on the gel to be used, and protein dilution was made in a RIPI buffer.
The samples were loaded in the same amount into a NuPAGE or Bolt Bis-tris 4-12% gradient gel and allowed to run therein (200 V, 35 minutes). The separated proteins were transferred onto a […] NC membrane, using Trans-blot Turbo (BIO-RAD) (1.3 A constant, 25V limit, 15 minutes). The membrane was blocked at room temperature for 1 hour with skim milk or Intercept Blocking Buffer (LI-COR, 927-60001):0.1% TBST=1:1. The membrane was incubated with Anti BTK Rabbit (1:1,000 in 5% skim milk/0.2% TBST, size: 77 kDa, Cell signaling Technology) at 4° C. overnight O/N or at room temperature for 2 hours and with Anti GAPDH Rabbit (1:10,000 in 5% BSA/0.2% TBST, size: 36 kDa, GENETEX) and Anti β-actin mouse (1:10,000 in 5% BSA/0.2% TBST, RT, size: 43 kDa, GENETEX) at room temperature for 1 or 3 hours. Then, the membrane was washed three times with 0.5% TBST for 5 minutes each time before incubation with the second antibody Anti-Rabbit IgG (1:5,000 in 5% Skim milk/TBST, CST), IRDye® 800CW Goat anti-Rabbit IgG Secondary Antibody (1:10,000 in 5% skim/TBST, RT 45 min), or IRDye® 680RD Goat anti-Mouse IgG Secondary Antibody (1:10,000 in 5% skim/TBST, RT 45 min) for 45 minutes at room temperature in a rocker. The membrane was washed five times with 0.5% TBST for 5 minutes in each time, followed by detection with LI-COR, Odyssey. In this regard, the detection proceeded, as it was, for house-keeping genes while using SuperSignal West Pico PLUS Chemiluminescent Substrate or SuperSignal West femto Maximum Sensitivity Substrate for BTK detection. […]

T1 sequence (Q06187 whole entry): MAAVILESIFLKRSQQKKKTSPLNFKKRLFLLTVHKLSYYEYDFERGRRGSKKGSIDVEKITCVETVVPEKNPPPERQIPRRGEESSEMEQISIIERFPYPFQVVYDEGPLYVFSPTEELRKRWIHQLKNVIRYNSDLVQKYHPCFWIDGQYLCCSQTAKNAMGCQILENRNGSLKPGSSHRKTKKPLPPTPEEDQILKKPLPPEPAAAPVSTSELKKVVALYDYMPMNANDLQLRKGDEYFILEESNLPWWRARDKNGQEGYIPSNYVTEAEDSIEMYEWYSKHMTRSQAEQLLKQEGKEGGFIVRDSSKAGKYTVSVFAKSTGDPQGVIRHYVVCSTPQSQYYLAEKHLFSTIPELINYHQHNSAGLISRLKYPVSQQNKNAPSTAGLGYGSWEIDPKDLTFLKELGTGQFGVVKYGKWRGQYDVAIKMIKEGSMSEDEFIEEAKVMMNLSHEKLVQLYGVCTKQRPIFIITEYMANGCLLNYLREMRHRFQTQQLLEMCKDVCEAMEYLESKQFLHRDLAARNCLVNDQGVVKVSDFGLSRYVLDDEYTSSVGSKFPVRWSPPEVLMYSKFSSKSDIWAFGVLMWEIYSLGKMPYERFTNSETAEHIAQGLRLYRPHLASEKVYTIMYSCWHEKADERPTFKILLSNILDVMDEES

| DC50 [nM] | Compound |
| --- | --- |
| 0.1 to 10 | Cc1cccc(C)c1Nc1nn(C)c2nc(Nc3ccc4c(c3)CN(C3CN(CC5CN(c6ccc7c(c6)C(=O)N(C6CCC(=O)NC6=O)C7=O)C5)C3)CC4)ncc12 (stereo not shown) [Compound 152, 5-(3-((3-(7-((3-((2,6-Dimethylphenyl)amino)-1-methyl-TH-pyrazolo[3,4-d]pyrimidin-6-yl)amino)-3,4-dihydroisoquinolin-2 (1H)-yl)azetidin-1-yl)methyl)azetidin-1-yl)-2-(2,6-dioxopiperidin-3-yl)isoindoline-1,3-dione] |
| 10 to 1000 | Cc1cc(NC(=O)c2cccc(C(F)(F)F)c2)ccc1Nc1nn(C)c2nc(Nc3ccc4c(c3)CN(CC3CCN(c5ccc6c(c5)C(=O)N(C5CCC(=O)NC5=O)C6=O)CC3)CC4)ncc12 (stereo not shown) [Compound 122, N-(4-((6-((2-((1-(2-(2,6-Dioxopiperidin-3-yl)-1,3-dioxoisoindolin-5-yl)piperidin-4-yl)methyl)-1,2,3,4-tetrahydroisoquinolin-7-yl)amino)-1-methyl-1H-pyrazolo[3,4-d]pyrimidin-3-yl)amino)-3-methylphenyl)-3-(trifluoromethyl)benzamide] |
| 0.1 to 10 | Cc1cccc(C)c1Nc1nn(C)c2nc(Nc3ccc(F)c(C4=CCN(CC5CCN(c6ccc7c(c6)C(=O)N(C6CCC(=O)NC6=O)C7=O)CC5)CC4)c3)ncc12 (stereo not shown) [Compound 250, 5-(4-((4-(5-((3-((2,6-Dimethylphenyl)amino)-1-methyl-1H-pyrazolo[3,4-d]pyrimidin-6-yl)amino)-2-fluorophenyl)-3,6-dihydropyridin-1 (2H)-yl)methyl)piperidin-1-yl)-2-(2,6-dioxopiperidin-3-yl)isoindoline-1,3-dione] |
| 0.1 to 10 | Cc1cccc(C)c1Nc1nn(C)c2nc(Nc3ccc(C4CCN(C(=O)C5CCN(c6ccc7c(c6)n(C)c(=O)n7C6CCC(=O)NC6=O)CC5)CC4)cc3)ncc12 (stereo not shown) [Compound 262, 3-(5-(4-(4-(4-((3-((2,6-Dimethylphenyl)amino)-1-methyl-1H-pyrazolo[3,4-d]pyrimidin-6-yl)amino)phenyl)piperidine-1-carbonyl)piperidin-1-yl)-3-methyl-2-oxo-2,3-dihydro-1H-benzo[d]imidazol-1-yl)piperidin-2,6-one] |
| 0.1 to 10 | Cn1nc(Nc2c(Cl)cccc2Cl)c2cnc(Nc3ccc4c(c3)CN(CC3CCN(c5ccc6c(c5)C(=O)N(C5CCC(=O)NC5=O)C6=O)CC3)CC4)nc21 (stereo not shown) [Compound 82, 5-(4-((7-((3-((2,6-Dichlorophenyl)amino)-1-methyl-1H-pyrazolo[3,4-d]pyrimidin-6-yl)amino)-3,4-dihydroisoquinolin-2 (1H)-yl)methyl)piperidin-1-yl)-2-(2,6-dioxopiperidin-3-yl)isoindoline-1,3-dione] |
| 0.1 to 10 | Cc1cccc(C)c1Nc1nn(C)c2nc(Nc3ccc(C4CN(C[C@@H]5CCN(c6ccc7c(c6)C(=O)N(C6CCC(=O)NC6=O)C7=O)C5)C4)cc3)ncc12 (stereo partly drawn) [Compound 177, 5-((S)-3-((3-(4-((3-((2,6-Dimethylphenyl)amino)-1-methyl-1H-pyrazolo[3,4-d]pyrimidin-6-yl)amino)phenyl)azetidin-1-yl)methyl)pyrrolidin-1-yl)-2-(2,6-dioxopiperidin-3-yl)isoindoline-1,3-dione] |
| 0.1 to 10 | Cc1cccc(C)c1Nc1nn(C)c2nc(Nc3ccc(N4CCN(CC5CN(c6ccc7c(c6)C(=O)N(C6CCC(=O)NC6=O)C7=O)C5)CC4)nc3)ncc12 (stereo not shown) [Compound 159, 5-(3-((4-(5-((3-((2,6-dimethylphenyl)amino)-1-methyl-1H-pyrazolo[3,4-d]pyrimidin-6-yl)amino)pyridin-2-yl)piperazin-1-yl)methyl)azetidin-1-yl)-2-(2,6-dioxopiperidin-3-yl)isoindoline-1,3-dione] |
| 0.1 to 10 | Cn1nc(Nc2c(Cl)cccc2Br)c2cnc(Nc3ccc4c(c3)CN(CC3CCN(c5ccc6c(c5)C(=O)N(C5CCC(=O)NC5=O)C6=O)CC3)CC4)nc21 (stereo not shown) [Compound 218, 5-(4-((7-((3-((2-Bromo-6-chlorophenyl)amino)-1-methyl-1H-pyrazolo[3,4-d]pyrimidin-6-yl)amino)-3,4-dihydroisoquinolin-2 (1H)-yl)methyl)piperidin-1-yl)-2-(2,6-dioxopiperidin-3-yl)isoindoline-1,3-dione] |
| 0.1 to 10 | Cc1cccc(C)c1Nc1nn(C)c2nc(Nc3ccc(N4CCN(CC5CN(c6ccc7c(c6)C(=O)N(C6CCC(=O)NC6=O)C7=O)C5)[C@H](C)C4)cc3)ncc12 (stereo partly drawn) [Compound 186, 5-(3-(((R)-4-(4-((3-((2,6-Dimethylphenyl)amino)-1-methyl-1H-pyrazolo[3,4-d]pyrimidin-6-yl)amino)phenyl)-2-methylpiperazin-1-yl)methyl)azetidin-1-yl)-2-(2,6-dioxopiperidin-3-yl)isoindoline-1,3-dione] |
| 0.1 to 10 | Cc1cccc(C)c1Nc1nn(C)c2nc(Nc3ccc4c(c3)CN(CC3CCN(C(=O)Nc5ccc6c(c5)CN(C5CCC(=O)NC5=O)C6=O)CC3)CC4)ncc12 (stereo not shown) [Compound 92, 4-((7-((3-((2,6-Dimethylphenyl)amino)-1-methyl-1H-pyrazolo[3,4-d]pyrimidin-6-yl)amino)-3,4-dihydroisoquinolin-2 (1H)-yl)methyl)-N-(2-(2,6-dioxopiperidin-3-yl)-1-oxoisoindolin-5-yl)piperidine-1-carboxamide] |
| 10 to 1000 | Cc1cccc(C)c1Nc1nn(C)c2nc(Nc3ccc4c(c3)CN(C(=O)C3(NCC5CCN(c6ccc7c(c6)C(=O)N(C6CCC(=O)NC6=O)C7=O)CC5)CC3)CC4)ncc12 (stereo not shown) [Compound 199, 5-(4-(((1-(7-((3-((2,6-Dimethylphenyl)amino)-1-methyl-1H-pyrazolo[3,4-d]pyrimidin-6-yl)amino)-1,2,3,4-tetrahydroisoquinoline-2-carbonyl)cyclopropyl)amino)methyl)piperidin-1-yl)-2-(2,6-dioxopiperidin-3-yl)isoindoline-1,3-dione] |
| 10 to 1000 | Cc1cccc(C)c1Nc1nn(C)c2nc(Nc3ccc4c(c3)CN(C(=O)Cc3cccc(NC5=CC(=O)N(C6CCC(=O)NC6=O)C5=O)c3)CC4)ncc12 (stereo not shown) [Compound 192, 3-(3-((3-(2-(7-((3-((2,6-Dimethylphenyl)amino)-1-methyl-1H-pyrazolo[3,4-d]pyrimidin-6-yl)amino)-3,4-dihydroisoquinolin-2 (1H)-yl)-2-oxoethyl)phenyl)amino)-2,5-dioxo-2,5-dihydro-1H-pyrrol-1-yl)piperidin-2,6-one] |
| 0.1 to 10 | Cc1cccc(C)c1Nc1nn(C)c2nc(Nc3ccc4c(c3)CN(C3CCN(C[C@@H]5CCCN(c6ccc7c(c6)C(=O)N(C6CCC(=O)NC6=O)C7=O)C5)CC3)CC4)ncc12 (stereo partly drawn) [Compound 141, 5-((S)-3-((4-(7-((3-((2,6-dimethylphenyl)amino)-1-methyl-1H-pyrazolo[3,4-d]pyrimidin-6-yl)amino)-3,4-dihydroisoquinolin-2 (1H)-yl)piperidin-1-yl)methyl)piperidin-1-yl)-2-(2,6-dioxopiperidin-3-yl)isoindoline-1,3-dione] |
